Laboratory results published in patent US11667649B2, “Heteroaromatic macrocyclic ether chemotherapeutic agents” (Nuvalent, Inc., priority 2020, dated 2023).

Test system: TPM3-NTRK1-wt IC50 / primary target (e.g. CD74-ROS1-wt) IC50, Ba/F3 cells
Assay: Cell assay TRKA selectivity (TRKA potency divided by primary target potency)
Type: cell-based
Settings: for TPM3-NTRK1-wt/CD74-ROS1-G2032R: TRKA selectivity ratio: TPM3-NTRK1-wt IC50 / CD74-ROS1-G2032R IC50, Ba/F3 cells; for TPM3-NTRK1-wt/CD74-ROS1-wt: TRKA selectivity ratio: TPM3-NTRK1-wt IC50 / CD74-ROS1-wt IC50, Ba/F3 cells; for TPM3-NTRK1-wt/EML4-ALK-L1196M-G1202R: TRKA selectivity ratio: TPM3-NTRK1-wt IC50 / EML4-ALK-L1196M-G1202R IC50, Ba/F3 cells; for TPM3-NTRK1-wt/EML4-ALK-wt: TRKA selectivity ratio: TPM3-NTRK1-wt IC50 / EML4-ALK-wt IC50, Ba/F3 cells
In short: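 Ratio of TRKA to primary-target cellular IC50 (e.g. TPM3-NTRK1-wt/CD74-ROS1-wt), grouped into bins A >30, B >10, C ≥1, D <1. Each IC50 came from engineered Ba/F3 fusion lines grown without IL-3, dosed for 72 h and read as CellTiter-Glo luminescence, with a four-parameter logistic fit.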

SMILES | TPM3-NTRK1-wt/CD74-ROS1-G2032R | TPM3-NTRK1-wt/CD74-ROS1-wt | TPM3-NTRK1-wt/EML4-ALK-L1196M-G1202R | TPM3-NTRK1-wt/EML4-ALK-wt
CCn1ncc2c1-c1cnc(N)c(c1)OCc1cc(F)ccc1-c1nccn1C2 [Example 34, 3-ethyl-16-fluoro-20-oxa-3,4,8,11,23-pentaazapentacyclo[19.3.1.0^2,^6.0^8,^12.0^13,^18]pentacosa-1(24),2(6),4,9,11,13,15,17,21(25),22-decaen-22-amine] | A (bin A for very high selectivity, ratio>30-fold) | A (bin A for very high selectivity, ratio>30-fold) | B (bin B for high selectivity, ratio>10-fold) | A (bin A for very high selectivity, ratio>30-fold)
CCn1nnc2c1-c1cnc(N)c(c1)O[C@H](C)c1cc(F)ccc1-c1nn(C)cc1C2 [Example 20, (19R)-3-ethyl-16-fluoro-10,19-dimethyl-20-oxa-3,4,5,10,11,23-hexaazapentacyclo[19.3.1.0^2,^6.0^8,^12.0^13,^18]pentacosa-1(24),2(6),4,8,11,13,15,17,21(25),22-decaen-22-amine] | A (bin A for very high selectivity, ratio>30-fold) | A (bin A for very high selectivity, ratio>30-fold) | B (bin B for high selectivity, ratio>10-fold) | A (bin A for very high selectivity, ratio>30-fold)
CCn1ncc2c1-c1cnc(N)c(c1)O[C@H](C)c1cc(F)ccc1-c1ncc(OC)cc1C2 [Example 149, (20R)-3-ethyl-17-fluoro-10-methoxy-20-methyl-21-oxa-3,4,12,24-tetraazapentacyclo[20.3.1.0^2,^6.0^8,^13.0^14,^19]hexacosa-1(25),2(6),4,8(13),9,11,14,16,18,22(26),23-undecaen-23-amine] | B (bin B for high selectivity, ratio>10-fold) | A (bin A for very high selectivity, ratio>30-fold) | D (bin D for low selectivity, ratio<1) | B (bin B for high selectivity, ratio>10-fold)
C[C@H]1Oc2cc(cnc2N)-c2c(nnn2CC2CC2)Cc2cc(C(F)F)nn2-c2ccc(F)cc21 [Example 122, (19R)-3-(cyclopropylmethyl)-10-(difluoromethyl)-16-fluoro-19-methyl-20-oxa-3,4,5,11,12,23-hexaazapentacyclo[19.3.1.0^2,^6.0^8,^12.0^13,^18]pentacosa-1(24),2(6),4,8,10,13,15,17,21(25),22-decaen-22-amine] | A (bin A for very high selectivity, ratio>30-fold) | A (bin A for very high selectivity, ratio>30-fold) | C (bin C for moderate selectivity, ratio≥1) | B (bin B for high selectivity, ratio>10-fold)
CCn1ncc2c1-c1cnc(N)c(c1)O[C@H](C)c1cc(F)ccc1-c1nn(C(F)F)cc1C2 [Example 86, (19R)-10-(difluoromethyl)-3-ethyl-16-fluoro-19-methyl-20-oxa-3,4,10,11,23-pentaazapentacyclo[19.3.1.0^2,^6.0^8,^12.0^13,^18]pentacosa-1(24),2(6),4,8,11,13,15,17,21(25),22-decaen-22-amine] | B (bin B for high selectivity, ratio>10-fold) | A (bin A for very high selectivity, ratio>30-fold) | D (bin D for low selectivity, ratio<1) | C (bin C for moderate selectivity, ratio≥1)
CCn1ncc2c1-c1cnc(N)c(c1)O[C@H](C)c1cc(F)ccc1-c1nn(C)c(C)c1C2 [Example 87, (19R)-3-ethyl-16-fluoro-9,10,19-trimethyl-20-oxa-3,4,10,11,23-pentaazapentacyclo[19.3.1.0^2,^6.0^8,^12.0^13,^18]pentacosa-1(24),2(6),4,8,11,13,15,17,21(25),22-decaen-22-amine] | A (bin A for very high selectivity, ratio>30-fold) | A (bin A for very high selectivity, ratio>30-fold) | C (bin C for moderate selectivity, ratio≥1) | A (bin A for very high selectivity, ratio>30-fold)
